Source: publication PMC5362750, “Discovery of Potent, Selective, and Orally Bioavailable Small-Molecule Modulators of the Mediator Complex-Associated Kinases CDK8 and CDK19” (Journal of Medicinal Chemistry, 2016)

Key:
UT (h) = molecular target: T1, UT (h) (Homo sapiens, UniProt Q9UKP6); assay: CEREP binding assay; conditions: agonist radioligand, read-out: % Inhibition of Control Specific Binding
T1 construct: CEREP

Ca2+ channel (N) = molecular target: T2, Ca2+ channel (N) (Rattus norvegicus, UniProt Q02294); assay: CEREP binding assay; conditions: antagonist radioligand, read-out: % Inhibition of Control Specific Binding
T2 construct: CEREP

[1] = molecular target: T3, choline transporter (CHT1) (h) (Homo sapiens, UniProt Q9GZV3); assay: CEREP binding assay; conditions: antagonist radioligand, read-out: % Inhibition of Control Specific Binding
T3 construct: CEREP

EPHA2 = EPHA2 (Homo sapiens, UniProt P29317); assay: Kinase panel (Millipore); type: biochemical; conditions: 1 µM, ATP at Km
ASK1 = ASK1 (Homo sapiens, UniProt Q99683); assay: Kinase panel (Millipore); type: biochemical; conditions: 1 µM, ATP at Km
MAPK2 = MAPK2 (Homo sapiens, UniProt P28482); assay: Kinase panel (Millipore); type: biochemical; conditions: 1 µM, ATP at Km
MINK = molecular target: T4, MINK (Homo sapiens, UniProt Q8N4C8); assay: Kinase panel (Millipore); type: biochemical; conditions: 1 µM, ATP at Km
T4 construct: purchased Millipore (KinaseProfiler) kinase panel

MKK7BETA = molecular target: T5, MKK7BETA (Homo sapiens, UniProt O14733); assay: Kinase panel (Millipore); type: biochemical; conditions: 1 µM, ATP at Km
T5 construct: purchased Millipore (KinaseProfiler) kinase panel

FLT3 = molecular target: T6, FLT3 (Homo sapiens, UniProt P36888); assay: Kinase panel (Millipore); type: biochemical; conditions: 1 µM, ATP at Km
T6 construct: purchased Millipore (KinaseProfiler) kinase panel

HIPK2 = molecular target: T7, HIPK2 (Homo sapiens, UniProt Q9H2X6); assay: Kinase panel (Millipore); type: biochemical; conditions: 1 µM, ATP at Km
T7 construct: purchased Millipore (KinaseProfiler) kinase panel

IKKBETA = molecular target: T8, IKKBETA (Homo sapiens, UniProt O14920); assay: Kinase panel (Millipore); type: biochemical; conditions: 1 µM, ATP at Km
T8 construct: purchased Millipore (KinaseProfiler) kinase panel

DAPK2 = DAPK2 (Homo sapiens, UniProt Q9UIK4); assay: Kinase panel (Millipore); type: biochemical; conditions: 1 µM, ATP at Km
NEK6 = molecular target: T9, NEK6 (Homo sapiens, UniProt Q9HC98); assay: Kinase panel (Millipore); type: biochemical; conditions: 1 µM, ATP at Km
T9 construct: purchased Millipore (KinaseProfiler) kinase panel

NEK7 = NEK7 (Homo sapiens, UniProt Q8TDX7); assay: Kinase panel (Millipore); type: biochemical; conditions: 1 µM, ATP at Km
DRAK1 = molecular target: T10, DRAK1 (Homo sapiens, UniProt Q9UEE5); assay: Kinase panel (Millipore); type: biochemical; conditions: 1 µM, ATP at Km
T10 construct: purchased Millipore (KinaseProfiler) kinase panel

EGFR = EGFR (Homo sapiens, UniProt P00533); assay: Kinase panel (Millipore); type: biochemical; conditions: 1 µM, ATP at Km
SAPK2A = SAPK2A (Homo sapiens, UniProt Q16539); assay: Kinase panel (Millipore); type: biochemical; conditions: 1 µM, ATP at Km
SNK = molecular target: T11, SNK (Homo sapiens, UniProt Q9NYY3); assay: Kinase panel (Millipore); type: biochemical; conditions: 1 µM, ATP at Km
T11 construct: purchased Millipore (KinaseProfiler) kinase panel

PKBGAMMA = PKBGAMMA (Homo sapiens, UniProt Q9Y243); assay: Kinase panel (Millipore); type: biochemical; conditions: 1 µM, ATP at Km
PKCALPHA = PKCALPHA (Homo sapiens, UniProt P17252); assay: Kinase panel (Millipore); type: biochemical; conditions: 1 µM, ATP at Km
PIM-3 = PIM-3 (Homo sapiens, UniProt Q86V86); assay: Kinase panel (Millipore); type: biochemical; conditions: 1 µM, ATP at Km
TAK1 = molecular target: T12, TAK1 (Homo sapiens, UniProt O43318); assay: Kinase panel (Millipore); type: biochemical; conditions: 1 µM, ATP at Km
T12 construct: purchased Millipore (KinaseProfiler) kinase panel

PKCETA = molecular target: T13, PKCETA (Homo sapiens, UniProt P24723); assay: Kinase panel (Millipore); type: biochemical; conditions: 1 µM, ATP at Km
T13 construct: purchased Millipore (KinaseProfiler) kinase panel

TRKA = molecular target: T14, TRKA (Homo sapiens, UniProt P04629); assay: Kinase panel (Millipore); type: biochemical; conditions: 1 µM, ATP at Km
T14 construct: purchased Millipore (KinaseProfiler) kinase panel

PKCIOTA = molecular target: T15, PKCIOTA (Homo sapiens, UniProt P41743); assay: Kinase panel (Millipore); type: biochemical; conditions: 1 µM, ATP at Km
T15 construct: purchased Millipore (KinaseProfiler) kinase panel

ZAP-70 = molecular target: T16, ZAP-70 (Homo sapiens, UniProt P43403); assay: Kinase panel (Millipore); type: biochemical; conditions: 1 µM, ATP at Km
T16 construct: purchased Millipore (KinaseProfiler) kinase panel

PRK2 = molecular target: T17, PRK2 (Homo sapiens, UniProt Q16513); assay: Kinase panel (Millipore); type: biochemical; conditions: 1 µM, ATP at Km
T17 construct: purchased Millipore (KinaseProfiler) kinase panel

RET = molecular target: T18, RET (Homo sapiens, UniProt P07949); assay: Kinase panel (Millipore); type: biochemical; conditions: 1 µM, ATP at Km
T18 construct: purchased Millipore (KinaseProfiler) kinase panel

TXK = molecular target: T19, TXK (Homo sapiens, UniProt P42681); assay: Kinase panel (Millipore); type: biochemical; conditions: 1 µM, ATP at Km
T19 construct: purchased Millipore (KinaseProfiler) kinase panel

MTOR = MTOR (Homo sapiens, UniProt P42345); assay: Kinase panel (Millipore); type: biochemical; conditions: 1 µM, ATP at Km
CAMKIIDELTA = CAMKIIDELTA (Homo sapiens, UniProt Q13557); assay: Kinase panel (Millipore); type: biochemical; conditions: 1 µM, ATP at Km
CLK3 = molecular target: T20, CLK3 (Homo sapiens, UniProt P49761); assay: Kinase panel (Millipore); type: biochemical; conditions: 1 µM, ATP at Km
T20 construct: purchased Millipore (KinaseProfiler) kinase panel

[2] = male, Wistar, rat, in vivo
TNF-alpha (h) = conditions: 10 µM, agonist radioligand
PCP = conditions: 10 µM, antagonist radioligand
CDK2/CYCLINA = CDK2/CYCLINA (Homo sapiens, UniProt P24941); conditions: 1 µM, ATP at Km
CDK5/P25 = CDK5/P25 (Homo sapiens, UniProt Q00535); conditions: 1 µM, ATP at Km
cMET (Y1248D) = cMET (Y1248D) (Homo sapiens, UniProt P08581, Y1230D); conditions: 1 µM, ATP at Km
in vitro = conditions: human, Caco-2, pH 7.4
alpha 2A (h) = alpha 2A (h) (Homo sapiens, UniProt P08913); assay: biochemical; conditions: read-out: % Inhibition of Control Specific Binding
alpha 2B (h) = alpha 2B (h) (Homo sapiens, UniProt P18089); assay: biochemical; conditions: read-out: % Inhibition of Control Specific Binding
D2S (h) = D2S (h) (Homo sapiens, UniProt P14416); assay: biochemical; conditions: read-out: % Inhibition of Control Specific Binding
GABAB(1b) (h) = GABAB(1b) (h) (Homo sapiens, UniProt Q9UBS5); assay: biochemical; conditions: read-out: % Inhibition of Control Specific Binding
GABAB(1b) (h), sequence (Q9UBS5 1-844 isoform Q9UBS5-2): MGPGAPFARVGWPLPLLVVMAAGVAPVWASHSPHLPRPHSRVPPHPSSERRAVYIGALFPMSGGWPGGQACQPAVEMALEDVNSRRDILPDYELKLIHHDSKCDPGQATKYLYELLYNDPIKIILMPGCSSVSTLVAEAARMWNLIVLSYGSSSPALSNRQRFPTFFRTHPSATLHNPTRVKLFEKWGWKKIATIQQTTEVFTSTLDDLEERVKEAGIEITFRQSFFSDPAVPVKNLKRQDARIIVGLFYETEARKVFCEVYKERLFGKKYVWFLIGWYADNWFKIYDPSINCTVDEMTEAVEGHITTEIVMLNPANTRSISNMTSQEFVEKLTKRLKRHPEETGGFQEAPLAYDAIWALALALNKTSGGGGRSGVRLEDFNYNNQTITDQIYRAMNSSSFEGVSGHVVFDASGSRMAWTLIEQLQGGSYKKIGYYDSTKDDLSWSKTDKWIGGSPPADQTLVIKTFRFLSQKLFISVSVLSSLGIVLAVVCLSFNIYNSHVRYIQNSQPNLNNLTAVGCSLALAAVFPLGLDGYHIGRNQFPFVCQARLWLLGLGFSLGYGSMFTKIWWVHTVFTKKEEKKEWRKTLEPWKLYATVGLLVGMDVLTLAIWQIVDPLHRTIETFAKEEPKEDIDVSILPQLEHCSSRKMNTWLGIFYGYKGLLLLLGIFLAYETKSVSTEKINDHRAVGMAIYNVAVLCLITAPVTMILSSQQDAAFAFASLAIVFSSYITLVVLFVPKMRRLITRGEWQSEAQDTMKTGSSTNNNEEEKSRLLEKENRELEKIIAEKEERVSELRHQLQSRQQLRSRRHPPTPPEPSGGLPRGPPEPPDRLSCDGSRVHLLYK
GABAB(1b) (h), sequence (O75899 42-941 partner): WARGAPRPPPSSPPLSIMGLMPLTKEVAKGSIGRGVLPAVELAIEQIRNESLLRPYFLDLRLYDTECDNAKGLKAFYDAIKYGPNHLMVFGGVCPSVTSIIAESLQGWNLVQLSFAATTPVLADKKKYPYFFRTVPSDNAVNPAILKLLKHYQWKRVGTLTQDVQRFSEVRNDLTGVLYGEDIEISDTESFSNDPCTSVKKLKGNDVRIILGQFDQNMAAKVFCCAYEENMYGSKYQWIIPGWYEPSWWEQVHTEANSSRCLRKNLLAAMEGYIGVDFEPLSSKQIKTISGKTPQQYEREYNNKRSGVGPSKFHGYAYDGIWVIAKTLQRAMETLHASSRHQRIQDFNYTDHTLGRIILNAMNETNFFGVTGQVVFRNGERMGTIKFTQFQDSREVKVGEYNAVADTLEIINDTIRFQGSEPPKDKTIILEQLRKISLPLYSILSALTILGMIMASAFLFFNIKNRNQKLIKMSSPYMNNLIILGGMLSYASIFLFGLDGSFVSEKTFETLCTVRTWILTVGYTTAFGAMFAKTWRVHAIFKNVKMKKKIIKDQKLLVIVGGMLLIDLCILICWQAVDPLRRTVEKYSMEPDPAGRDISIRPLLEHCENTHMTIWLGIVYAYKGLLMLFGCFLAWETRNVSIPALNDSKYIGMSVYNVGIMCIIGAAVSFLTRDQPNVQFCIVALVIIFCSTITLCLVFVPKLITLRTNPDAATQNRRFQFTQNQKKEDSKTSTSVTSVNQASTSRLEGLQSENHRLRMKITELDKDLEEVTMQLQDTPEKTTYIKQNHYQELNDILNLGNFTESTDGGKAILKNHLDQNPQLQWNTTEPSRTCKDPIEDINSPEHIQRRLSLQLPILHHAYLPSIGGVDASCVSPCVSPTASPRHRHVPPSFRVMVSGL

T18 sequence (P07949 29-1114): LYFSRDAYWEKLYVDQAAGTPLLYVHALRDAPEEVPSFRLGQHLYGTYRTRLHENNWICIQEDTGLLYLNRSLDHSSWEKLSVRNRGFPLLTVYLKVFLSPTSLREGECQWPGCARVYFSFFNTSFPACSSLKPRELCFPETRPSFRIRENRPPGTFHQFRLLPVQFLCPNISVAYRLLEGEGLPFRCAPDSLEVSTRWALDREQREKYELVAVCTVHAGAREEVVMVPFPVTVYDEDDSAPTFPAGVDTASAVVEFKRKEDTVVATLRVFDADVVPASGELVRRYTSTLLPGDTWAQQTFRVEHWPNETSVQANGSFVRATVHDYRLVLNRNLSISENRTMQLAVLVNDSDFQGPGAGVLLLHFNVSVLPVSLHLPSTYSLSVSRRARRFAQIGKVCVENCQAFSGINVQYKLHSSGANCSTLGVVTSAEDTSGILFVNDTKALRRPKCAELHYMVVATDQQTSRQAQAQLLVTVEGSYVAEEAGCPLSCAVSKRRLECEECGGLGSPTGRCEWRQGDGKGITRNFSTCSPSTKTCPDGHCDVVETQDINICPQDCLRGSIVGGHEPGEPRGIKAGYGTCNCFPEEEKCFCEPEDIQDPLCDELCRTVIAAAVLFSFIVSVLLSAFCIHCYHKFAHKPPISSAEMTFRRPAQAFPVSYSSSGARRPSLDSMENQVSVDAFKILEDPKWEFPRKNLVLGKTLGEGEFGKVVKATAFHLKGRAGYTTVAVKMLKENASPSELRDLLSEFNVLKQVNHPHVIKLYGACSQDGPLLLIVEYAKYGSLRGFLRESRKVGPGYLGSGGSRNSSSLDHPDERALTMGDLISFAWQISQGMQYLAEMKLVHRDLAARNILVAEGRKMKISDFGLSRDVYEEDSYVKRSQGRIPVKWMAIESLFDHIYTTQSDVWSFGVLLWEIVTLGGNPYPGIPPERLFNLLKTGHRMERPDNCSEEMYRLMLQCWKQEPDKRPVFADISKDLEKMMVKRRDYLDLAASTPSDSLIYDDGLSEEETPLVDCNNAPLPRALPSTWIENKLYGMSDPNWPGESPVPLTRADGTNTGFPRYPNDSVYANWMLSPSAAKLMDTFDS
alpha 2B (h), sequence (P18089 whole entry): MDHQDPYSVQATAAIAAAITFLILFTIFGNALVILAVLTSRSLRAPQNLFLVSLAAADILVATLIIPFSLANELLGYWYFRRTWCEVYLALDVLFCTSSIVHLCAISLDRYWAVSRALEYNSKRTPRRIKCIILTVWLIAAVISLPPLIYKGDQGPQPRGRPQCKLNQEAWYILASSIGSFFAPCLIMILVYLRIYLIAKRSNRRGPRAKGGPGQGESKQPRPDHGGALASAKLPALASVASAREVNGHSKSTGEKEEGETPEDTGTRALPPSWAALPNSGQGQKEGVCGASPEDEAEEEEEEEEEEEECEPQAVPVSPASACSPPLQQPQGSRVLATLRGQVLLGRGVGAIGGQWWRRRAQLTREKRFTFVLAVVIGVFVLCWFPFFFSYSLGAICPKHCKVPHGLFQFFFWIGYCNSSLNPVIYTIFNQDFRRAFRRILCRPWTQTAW
T13 sequence (P24723 whole entry): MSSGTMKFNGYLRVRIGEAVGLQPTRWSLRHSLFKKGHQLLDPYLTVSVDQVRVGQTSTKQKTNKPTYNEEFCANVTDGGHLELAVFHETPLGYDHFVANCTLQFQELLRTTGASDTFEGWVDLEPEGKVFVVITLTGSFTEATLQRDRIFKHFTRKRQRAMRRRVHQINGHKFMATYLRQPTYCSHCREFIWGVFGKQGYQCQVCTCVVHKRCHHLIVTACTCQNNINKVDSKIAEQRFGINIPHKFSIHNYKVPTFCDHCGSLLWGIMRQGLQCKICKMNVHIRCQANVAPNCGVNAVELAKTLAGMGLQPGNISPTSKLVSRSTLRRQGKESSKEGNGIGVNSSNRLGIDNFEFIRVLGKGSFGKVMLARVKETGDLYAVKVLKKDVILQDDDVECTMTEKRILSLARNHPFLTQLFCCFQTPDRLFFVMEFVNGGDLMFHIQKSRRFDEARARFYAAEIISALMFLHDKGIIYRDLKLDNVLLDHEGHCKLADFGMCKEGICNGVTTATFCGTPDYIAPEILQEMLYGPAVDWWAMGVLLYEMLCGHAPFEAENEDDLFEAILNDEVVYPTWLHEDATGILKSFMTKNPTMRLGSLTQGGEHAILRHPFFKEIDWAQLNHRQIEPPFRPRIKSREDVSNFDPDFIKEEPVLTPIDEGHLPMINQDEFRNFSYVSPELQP
T12 sequence (O43318 1-303 limits assumed): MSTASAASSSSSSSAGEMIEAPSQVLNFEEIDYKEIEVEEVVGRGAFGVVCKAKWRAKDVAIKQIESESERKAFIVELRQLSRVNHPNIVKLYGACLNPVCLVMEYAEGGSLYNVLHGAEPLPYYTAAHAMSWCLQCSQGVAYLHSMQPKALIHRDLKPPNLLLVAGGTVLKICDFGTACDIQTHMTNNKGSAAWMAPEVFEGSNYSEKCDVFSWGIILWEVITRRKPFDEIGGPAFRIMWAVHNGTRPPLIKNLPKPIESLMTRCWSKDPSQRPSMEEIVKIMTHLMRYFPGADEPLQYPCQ
T20 sequence (P49761 whole entry): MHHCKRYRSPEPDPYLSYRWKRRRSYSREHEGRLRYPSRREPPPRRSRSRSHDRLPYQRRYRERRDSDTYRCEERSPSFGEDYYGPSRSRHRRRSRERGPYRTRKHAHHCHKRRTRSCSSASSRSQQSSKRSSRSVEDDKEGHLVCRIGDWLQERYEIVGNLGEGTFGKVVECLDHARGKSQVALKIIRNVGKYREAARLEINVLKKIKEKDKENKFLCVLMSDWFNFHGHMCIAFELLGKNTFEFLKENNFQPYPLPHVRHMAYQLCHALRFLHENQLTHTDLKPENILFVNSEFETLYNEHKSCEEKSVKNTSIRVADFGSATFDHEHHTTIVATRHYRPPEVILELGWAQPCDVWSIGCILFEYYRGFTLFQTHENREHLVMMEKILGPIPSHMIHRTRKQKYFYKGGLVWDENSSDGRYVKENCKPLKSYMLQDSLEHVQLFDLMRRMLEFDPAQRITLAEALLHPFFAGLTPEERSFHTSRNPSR

Compound: Cn1ncc2cc(-c3cnc(N)c(Cl)c3N3CCC4(CCNC4=O)CC3)ccc21 [Compound 109, 8-(2-Amino-3-chloro-5-(1-methyl-1H-indazol-5-yl)pyridin-4-yl)-2,8-diazaspiro[4.5]decan-1-one]
- inhibition at 10 µM (UT (h)): 33%
- inhibition at 10 µM (Ca2+ channel (N)): -12%
- inhibition at 10 µM [1]: 4%
- % effect (EPHA2): 5%
- % effect (ASK1): 17%
- % effect (MAPK2): -6%
- % effect (MINK): 22%
- % effect (MKK7BETA): -15%
- % effect (FLT3): 7%
- % effect (HIPK2): 2%
- % effect (IKKBETA): -2%
- % effect (DAPK2): -7%
- % effect (NEK6): 4%
- % effect (NEK7): 15%
- % effect (DRAK1): 1%
- % effect (EGFR): 4%
- % effect (SAPK2A): -6%
- % effect (SNK): 11%
- % effect (PKBGAMMA): 7%
- % effect (PKCALPHA): 5%
- % effect (PIM-3): 6%
- % effect (TAK1): -14%
- % effect (PKCETA): 6%
- % effect (TRKA): 2%
- % effect (PKCIOTA): -5%
- % effect (ZAP-70): 21%
- % effect (PRK2): 1%
- % effect (RET): 7%
- % effect (TXK): -5%
- % effect (MTOR): -3%
- % effect (CAMKIIDELTA): 7%
- % effect (CLK3): 4%
- LBF [2]: 34%
- % Inhibition of Control Specific Binding (TNF-alpha (h)): -8%
- % Inhibition of Control Specific Binding (PCP): -1%
- % effect (CDK2/CYCLINA): 1%
- % effect (CDK5/P25): 13%
- % effect (cMET (Y1248D)): -1%
- Papp A→B at 2 h, 1 μM (in vitro): 31.8 ×10⁻⁶ cm/s
- inhibition at 10 µM (alpha 2A (h)): 11%
- inhibition at 10 µM (alpha 2B (h)): 10%
- inhibition at 10 µM (D2S (h)): -5%
- inhibition at 10 µM (GABAB(1b) (h)): 2%
